One assay relates to A549 cells. In words: Invasion assay (internalization of S. aureus into A549 cells). The settings on record: CFU count. It is filed as cell-based. How it is done:
The assay of the internalization of S. aureus into A549 cells was performed as described. Briefly, 3 × 10^5 A549 cells were plated in each well of a 24-well plate and incubated at 37°C in 5% CO2 for 12 h. S. aureus was grown in BHI broth with or without Sal A to an OD600 of 1.0. Then, the bacterial suspension was added to the plate and incubated for 1 h. The bacterial suspension was discarded, and the A549 cells were washed three times with PBS and treated with DMEM containing 300 μg/ml gentamycin. After incubation for 2 h, the plates were washed three times, and the cells were lysed with sterile distilled water. The lysates were diluted 100-fold in PBS and spread onto BHI agar plates in triplicate. The plates were incubated at 37°C for 12 h, and the number of colony-forming unit (CFU) was determined by manual counting.

For another assay, the system named is S. aureus USA300. Kind of assay: Pneumonia model, survival. Conditions: mice, 2 × 10^9 CFU i.n.; s.c. 100 mg/kg Sal A and/or 75 mg/kg latamoxef every 12 h, 96 h; PBS control 10%. It is filed as in vivo, C57BL/6J mice. How it is done:
The animal experiments were performed using 6- to 8-week-old female C57BL/6J mice obtained from the Experimental Animal Center of Jilin University and conducted according to the guidelines of the Animal Care and Use Committee of Jilin University. The mouse S. aureus pneumonia model was generated as described previously. Briefly, the mice were anaesthetized with ether and inoculated with 30 μl bacterial resuspension via the left nare. The mice were then held upright to allow the bacteria to be inhaled into the lungs. For the survival assessment, groups of 10 mice were challenged with 2 × 10^9 CFU S. aureus. One hour after intranasal inoculation, the mice were subcutaneously injected with 100 mg/kg of Sal A, 75 mg/kg of latamoxef or 100 mg/kg of Sal A plus 75 mg/kg of latamoxef at 12 h intervals, and survival was assessed for 96 h. For the bacterial load, histopathological, and bronchoalveolar lavage fluid (BALF) experiments, mice were inoculated with 1 × 10^9 CFU S. aureus. The mice were then given a subcutaneous injection of 100 mg/kg Sal A, 75 mg/kg latamoxef or a combination of 100 mg/kg Sal A and 75 mg/kg every 12 h. After 24 h, the left lung of each anaesthetized mouse was aseptically excised and homogenized, and the CFU was determined by serial dilutions. […]

For another assay, the system named is TNF-α, IL-6, IL-1β. Kind of assay: Pneumonia model, cytokines in BALF (ELISA). The class given is in vivo, C57BL/6J mice. The settings on record: mice, 1 × 10^9 CFU i.n.; 100 mg/kg s.c.; 24 h after infection. As for the experimental part: For the determinations of the levels of TNF-α, IL-6, IL-1β, 24 h after inoculation with bacteria, the lungs of anaesthetized mice were lavaged with a tracheal cannula according to a procedure described previously. The lavage samples were centrifuged for 10 min at 500 × g and 4°C. The supernatant was collected, and the amounts of cytokines were quantified using commercial enzyme-linked immunosorbent assay (ELISA) kits (eBioscience, San Diego, CA) according to the manufacturer’s protocols. All animal experiments were replicated at least twice, with essentially identical results.
(In general: ELISA stands for enzyme-linked immunosorbent assay.)

In assay [1] the test system is S. aureus protein A (SpA). Kind of assay: SpA-related fluorescence analysis (confocal microscopy). It is filed as cell-based. Conditions: 256 μg/ml, FITC-labelled IgG. How it is done:
An overnight culture of S. aureus was diluted 1:100 in BHI broth with or without Sal A and grown until the OD600 reached 1.0. After centrifugation at 2,500 × g for 10 min, the bacterial pellets were fixed with 4% formaldehyde solution for 30 min. After washing three times with PBS, 5% BSA was added for blocking, and the bacteria were incubated for 20 min. Then, the bacteria were rinsed with PBS and resuspended in PBS containing FITC-labelled rabbit anti-goat-IgG (Sigma) at a dilution of 1:50 and incubated at 37°C for 3 h. After washing three times with PBS, the bacteria were placed onto poly-lysine-coated glass slides, and the SpA on the cell surface was visualized by confocal microscopy (Zeiss, LSM 880).

In assay [2] the test system is adhesion of S. aureus to fibrinogen. Kind of assay: Fibrinogen binding assay. It is filed as cell-based. The settings on record: bovine fibrinogen coated plate, crystal violet. As for the experimental part: Overnight cultures of S. aureus were subcultured into fresh medium with or without Sal A and then grown until the OD600 reached 0.5. Then, 100 μl of the bacterial culture was transferred into each well of a polystyrene 96-well plate coated with 20 μg/ml bovine fibrinogen and incubated for 2 h at 37°C. The cell suspension was discarded, and the wells were rinsed twice with PBS. Then, 25% formaldehyde was added and incubated for 30 min, and the plate was washed three times and stained with crystal violet dye (12.5 g/l). The binding of S. aureus to fibrinogen was quantitated as described previously. The data are presented as the mean ± SEM from three separate experiments.

The subject of the next assay is T1, WT-SrtA.
T1 construct: The gene encoding SrtA (lacking the N-terminal transmembrane domain (N1–59)); 6xHis (N); made in house
In words: Fluorescence quenching assay, WT-SrtA. It is filed as binding, S. aureus. As for the experimental part:
(§1) The fluorescence quenching assay was performed as previously described. Briefly, purified SrtA and mutant protein were diluted to 500 ng/ml with PBS. A total of 2.5 ml diluted protein solution was mixed with Sal A at different concentrations ranging from 0 to 4.5 μg. After incubation for 10 min, the fluorescence spectra of the mixed solutions were measured using a fluorescence spectrophotometer (RF5301, Japan). For the fluorescence measurement, the excitation and emission slits were set at 5.0 nm, the excitation wavelength was set at 280 nm, and fluorescence emission spectra in the range of 290–500 nm were scanned; the fluorescence intensity at 340 nm was recorded. All assays were performed in triplicate.

Another assay concerns T2, I182A-SrtA.
T2 construct: The gene encoding SrtA (lacking the N-terminal transmembrane domain (N1–59)); 6xHis (N); made in house
In words: Fluorescence quenching assay, I182A-SrtA. It is filed as binding, S. aureus. Conditions: fluorescence spectroscopy quenching. How it is done: as §1

The subject of a further assay is SrtA. Kind of assay: Western blot of SrtA expression. It is filed as cell-based, S. aureus. Conditions: 256, 128, 64, or 32 μg/ml, Western blot with grayscale analysis. How it is done: The dissolved cell wall proteins and cytoplasmic membranes were obtained according to a previously reported method. Equal volumes of protein extract were separated using a 12% SDS-PAGE gel, and the proteins were transferred onto polyvinylidine difluoride membranes (Wako Pure Chemical Industries, Ltd., Osaka, Japan). After blotting, the membrane was blocked with 5% BSA for 2 h and probed with primary antibodies against S. aureus SrtA overnight at 4°C. Next, the membrane was washed and incubated with HRP-labelled goat anti-rabbit IgG. After washing again with PBS, the immunoreactive bands were visualized by an ECL Western blot detection system (GE Healthcare, UK). The primary antibodies against S. aureus SrtA were produced in-house by our team members. The secondary HRP-labelled goat anti-rabbit IgG antibody was obtained from Proteintech (Chicago, USA).

Another assay deals with T3, A104L-SrtA.
T3 construct: The gene encoding SrtA (lacking the N-terminal transmembrane domain (N1–59)); 6xHis (N); made in house
In words: Fluorescence quenching assay, A104L-SrtA. The class given is binding, S. aureus. Conditions: fluorescence spectroscopy quenching. How it is done:
as §1

In the next assay the test system is T4, R197A-SrtA.
T4 construct: The gene encoding SrtA (lacking the N-terminal transmembrane domain (N1–59)); 6xHis (N); made in house
In words: Fluorescence quenching assay, R197A-SrtA. Conditions: fluorescence spectroscopy quenching. The class given is binding, S. aureus. How it is done:
as §1

Structures are written as SMILES. Marks after values point to notes of the source that are not given here.

For the compound `O=C(/C=C/c1ccc(O)c(O)c1/C=C/c1ccc(O)c(O)c1)O[C@H](Cc1ccc(O)c(O)c1)C(=O)O` [Sal A, (2R)-3-(3,4-Dihydroxyphenyl)-2-[(E)-3-[2-[(E)-2-(3,4-dihydroxyphenyl)ethenyl]-3,4-dihydroxyphenyl]prop-2-enoyl]oxypropanoic acid], the “number of bacteria entering the cells compared to the control group” value in the assay on A549 cells is “significant reduction”. Further, the survival rate in the assay on S. aureus USA300 was 80%. Further, in the assay with TNF-α, IL-6, IL-1β, the “levels of TNF-α, IL-6, and IL-1β in the BALF compared with the control group” value is given as “significantly downregulated”. In [1], the “level of green fluorescence (SpA on surface) compared with the WT group” value is “considerably reduced”. Besides, the “adhesion of S. aureus to fibrinogen” value in assay [2] is reported as “inhibited the adhesion of S. aureus to fibrinogen in a dose-dependent manner”. For the same compound, the KA was 58000 L/mol in the assay with WT-SrtA (fluorescence quenching, WT SrtA); 5.8 (1 × 10^4) l/mol in the assay on WT-SrtA (fluorescence spectroscopy quenching, WT-SrtA); 1.03 (1 × 10^4) l/mol in the assay on I182A-SrtA; 2.62 (1 × 10^4) l/mol with A104L-SrtA; 2.22 (1 × 10^4) l/mol with R197A-SrtA. Further, in the assay with SrtA, the “expression of SrtA” value is “did not impact the expression”.
